# Conditions: not given
SMILES,melting point,boiling point,log10 Koc (L/kg),log10 vapour pressure (mmHg),ready biodegradability,log10 Henry constant (atm·m³/mol),log10 Koa,logP,log10 biodegradation half-life (days)
N#Cc1ccccc1OCC(O)CNCCNC(=O)Cc1ccc(O)cc1 (stereo unspecified),119 °C,,,,,,,,
Cc1cccc2c1C=CC2,,209 °C,,,,,,,
O=[N+]([O-])c1ccc2c(c1)oc1ccccc12,182 °C,,,,,,,,
Cc1ccccc1C=O,,200 °C,,,,,,,
CC(C)C(C(=O)OC(C#N)c1cccc(Oc2ccccc2)c1)c1ccc(Cl)cc1 (stereo unspecified),52.2 °C,,3.73,-8.82,,,,,
CCOC(=O)c1ccco1,34.5 °C,197 °C,,-0.432,,,,,
Nc1ccc(-c2ccc(N)cc2)cc1,120 °C,401 °C,3.46,,,,,,
CCCNC(=O)OCC,,192 °C,,,,,,,
C1=CCc2ccccc2C1,25 °C,212 °C,,,,,,,
[C-]#[N+]C,-45 °C,59.6 °C,,,,,,,
CC(C)(C)c1ccc(O)c(N)c1,161 °C,,,,,,,,
CCCC(O)(CC)CC,,160 °C,,,,,,,
O=C(C(=O)c1cc(Br)ccc1O)c1cc(Br)ccc1O,212 °C,,,,,,,,
Nc1nc(=O)cc(Cl)[nH]1,262 °C,,,,,,,,
O=c1cc(-c2ccc(O)cc2)oc2cc(O)cc(O)c12,348 °C,,,,,,,,
CCCCCC[C@H](C)I,,210 °C,,0.136,,,,,
CC(=O)C#N,,92.3 °C,,,,,,,
CNC(=O)Nc1cccc(Cl)c1,,,1.93,,,,,,
CCCCOS(=O)(=O)OCCCC,,,,-1.93,,,,,
O=C(O)c1ccncc1,315 °C,,,,,,,,

SMILES,melting point,boiling point,log10 Koc (L/kg),log10 vapour pressure (mmHg),ready biodegradability,log10 Henry constant (atm·m³/mol),log10 Koa,logP,log10 biodegradation half-life (days)
Nc1ccc([N+](=O)[O-])cc1[N+](=O)[O-],180 °C,334 °C,,,not readily biodegradable,,,,
Clc1ccc(Cl)c(-c2ccccc2)c1Cl,,,,,,-3.66,,,
CCCCC(CC)COP(=O)(O)CC(CC)CCCC (stereo unspecified),,,,,not readily biodegradable,,,,
CCC(C)(c1ccc(O)cc1)c1ccc(O)cc1,120 °C,,,,,,,,
CC1=C(/C=C/C(C)=C/C=C/C(C)=C/C=C/C=C(C)/C=C/C=C(C)/C=C/C2=C(C)CCCC2(C)C)C(C)(C)CCC1,183 °C,,,,,,,,
Cc1ccccc1Br,-27.8 °C,182 °C,,0.0186,,,,,
COc1cc([N+](=O)[O-])c2ncccc2c1,159 °C,,,,,,,,
Clc1cc2c(cc1Cl)Oc1c(Cl)c(Cl)cc(Cl)c1O2,206 °C,,,-9.23,,,,,
CC(C)(C)OCC1CO1 (stereo unspecified),-70 °C,152 °C,,,,,,,
CC(=O)NCCS,6.5 °C,,,,,,,,
C=C[Si](OCC)(OCC)OCC,,,,0.358,,,,,
Brc1ccc(Oc2ccc(Br)cc2Br)c(Br)c1,,,,-7.15,,,10.5,6.81,
c1ccc2c(c1)CCO2,-21.5 °C,188 °C,,,,,,,
Cc1nc2n(c(=O)c1CCN1CCC(c3noc4cc(F)ccc34)CC1)CCCC2,170 °C,,,,,,,,
CC(C)C#N,-71.5 °C,104 °C,,1.51,readily biodegradable,,2.87,,
Nc1c(Cl)cc(C(=O)O)cc1Cl,292 °C,,,,,,,,
CCOC(=O)c1ccccc1S(=O)(=O)NC(=O)Nc1nc(Cl)cc(OC)n1,,,2.04,,,,,,
COc1cc(C(=O)NCCCCCC(=O)O)cc(OC)c1OC,122 °C,,,,,,,,
N#CC1CC2C=CC1C2 (stereo unspecified),13 °C,,,,,,,,
CCCCNCCO,-2 °C,199 °C,,,,,,,

SMILES,melting point,boiling point,log10 Koc (L/kg),log10 vapour pressure (mmHg),ready biodegradability,log10 Henry constant (atm·m³/mol),log10 Koa,logP,log10 biodegradation half-life (days)
ClCCOCCOCCCl,-31.5 °C,232 °C,,-1.22,not readily biodegradable,,,,
Nc1ccc([N+](=O)[O-])cc1O,208 °C,,,,,,,,
O=[N+]([O-])c1ccccc1-c1ccccc1,37.2 °C,320 °C,,,,,,,
CCCC(C)CC(C)(C)C (stereo unspecified),,148 °C,,,,,,,
Brc1ccsc1,,150 °C,,1.22,,,,,
CC(C)C(O)C(C)(C)CO (stereo unspecified),51.5 °C,232 °C,,-2.35,readily biodegradable,,,,
CCCCOC(=O)CCC(=O)O,8.6 °C,,,,,,,,
O=c1c2ccccc2ccc2ccccc12,88.5 °C,,,,,,,,
OCCCOCCCO,,,,,not readily biodegradable,,,,
COC(=O)c1ccccc1Br,,252 °C,,,,,,,
CCC(C)(Cl)CCl (stereo unspecified),,134 °C,,,,,,,
CC(C)(C)OOC(C)(C)C,-40 °C,111 °C,,1.4,,,,,
C/C(=C\CNc1ncnc2[nH]cnc12)CO,208 °C,,,,,,,,
CC(C)C(C)C(C)(C)C (stereo unspecified),-121 °C,133 °C,,1.1,,,,,
O=[PH](O)c1ccccc1,84 °C,,,,,,,,
CC1(C)CC=CCC1,-74.4 °C,117 °C,,,,,,,
CCCCCCCCC,-53.5 °C,151 °C,,0.648,readily biodegradable,,,,0.954
C=CC(C)O (stereo unspecified),,,,,readily biodegradable,,,,

# Same assay, conditions: fish
SMILES,log10 BCF,log10 biotransformation half-life (days)
Clc1cc(Cl)c2c(oc3c(Cl)cc(Cl)c(Cl)c32)c1Cl,2.96,
C1CCCCCCCCCCC1,3.91,1.33
Clc1c(Cl)c(Cl)c(Cl)c(Cl)c1Cl,4.33,2.44
CC(C)C(C(=O)OC(C#N)c1cccc(Oc2ccccc2)c1)c1ccc(Cl)cc1 (stereo unspecified),2.85,0.69
Brc1ccc(Oc2ccc(Br)cc2Br)c(Br)c1,5.84,1.6
CC(C)C(O)C(C)(C)CO (stereo unspecified),0,-1.34
O=[PH](O)c1ccccc1,0.78,
CCCCCCCCC,,0.97

# Source: the OPERA property sets (Mansouri et al. 2018)
